From patent publication EP0133550B1, “Process for producing arphamenine in high yield” (MICROBIAL CHEMISTRY RESEARCH FOUNDATION, priority 1983, dated 1985)

Biological target: T1, aminopeptidase B (Rattus norvegicus, UniProt O09175)
T1 sequence (O09175 1-650): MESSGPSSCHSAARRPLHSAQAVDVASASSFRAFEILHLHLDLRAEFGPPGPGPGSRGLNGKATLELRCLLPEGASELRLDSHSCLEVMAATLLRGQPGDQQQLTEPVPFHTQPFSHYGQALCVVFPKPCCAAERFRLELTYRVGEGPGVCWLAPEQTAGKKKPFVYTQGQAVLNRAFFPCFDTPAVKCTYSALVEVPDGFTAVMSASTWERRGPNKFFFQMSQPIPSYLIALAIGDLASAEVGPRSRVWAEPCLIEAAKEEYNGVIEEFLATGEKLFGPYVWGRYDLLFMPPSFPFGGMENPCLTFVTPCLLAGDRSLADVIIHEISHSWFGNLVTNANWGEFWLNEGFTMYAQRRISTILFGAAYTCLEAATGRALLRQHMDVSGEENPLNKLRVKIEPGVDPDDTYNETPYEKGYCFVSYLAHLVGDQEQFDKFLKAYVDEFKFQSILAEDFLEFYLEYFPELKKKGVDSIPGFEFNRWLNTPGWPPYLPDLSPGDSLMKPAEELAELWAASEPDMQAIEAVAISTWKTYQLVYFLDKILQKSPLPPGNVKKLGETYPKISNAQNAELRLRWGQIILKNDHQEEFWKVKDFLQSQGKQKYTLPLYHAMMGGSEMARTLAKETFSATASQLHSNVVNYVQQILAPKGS
Test: Inhibition of aminopeptidase B (improved method of Hoppusu et al., arginine-ß-naphthylamide substrate, absorbance at 525 nm)
Format: biochemical
Settings: 0.002 M arginine-ß-naphthylamide, pH 7.0, 30 minutes at 37°C; read-out: IC50 (concentration which inhibited 50% of aminopeptidase B activity) (converted)
Procedure: The amount (potency) of arphamenine was determined by an improved method based on the method of Hoppusu et al. (V.K. HOPPUSU, K.K. MAKINEN & G.G. GLENNER, Archieves of Biochemistry and Biophysics 114, 557,1966). In detail, 0.5 ml of 0.1 M tris-hydrochloric acid buffer solution (pH 7.0) and 0.25 ml of a solution containing the specimen were added to 0.25 ml of 0.002 M arginine-ß-naphthylamide. The resulting mixed solution was heated for 3 minutes at 37°C. To the heated solution was added 5 pl of a solution of aminopeptidase B that had been purified by the use of DEAE-cellulose according to the enzyme- purification technique of Hoppusu et al.
The mixture was reacted for 30 minutes at 37°C, followed by adding to the reaction mixture 1 ml of 1.0 M acetic acid buffer solution (pH 4.2) containing Fast Garnet GBC@ (0-aminoazotoluene diazonium salt) in a concentration of 1 mg/ml and the surfactant Tween 20@ in a concentration of 10%.
The resulting mixture was allowed to stand for 15 minutes at room temperature, and measured for adsorbance (a) at 525 nm. Simultaneously, a blank absorbance (b) was obtained using an arphamenine- free buffer solution only. Percent inhibition of aminopeptidase B was calculated from the equation [(b-a)/b] x 100.

In the case of N=C(N)NCCCC(N)C(=O)CC(Cc1ccc(O)cc1)C(=O)O (stereo not shown) [arphamenine B], the IC50 is reported as 5.95 nM.
